Measurements: ChEMBL document CHEMBL1201862, “PubChem BioAssay data set” (2004)
Blank lines part the entries; values can stand above or below the compound they belong to. The source made the active and inactive calls.

Experiments:
[1] = viability of uninfected HEp-2 cells – cell-based, HTS, cytotoxicity control for RSV inhibitor project, dose response (AID 2410); type: functional; settings: human respiratory syncytial virus
[2] = target: T1, Mannose-6-phosphate isomerase (Homo sapiens, UniProt P34949); assay: MPI enzyme activity inhibition – biochemical, fluorescence intensity, coupled assay, primary screen (AID 1209)
T1 sequence (P34949 whole entry): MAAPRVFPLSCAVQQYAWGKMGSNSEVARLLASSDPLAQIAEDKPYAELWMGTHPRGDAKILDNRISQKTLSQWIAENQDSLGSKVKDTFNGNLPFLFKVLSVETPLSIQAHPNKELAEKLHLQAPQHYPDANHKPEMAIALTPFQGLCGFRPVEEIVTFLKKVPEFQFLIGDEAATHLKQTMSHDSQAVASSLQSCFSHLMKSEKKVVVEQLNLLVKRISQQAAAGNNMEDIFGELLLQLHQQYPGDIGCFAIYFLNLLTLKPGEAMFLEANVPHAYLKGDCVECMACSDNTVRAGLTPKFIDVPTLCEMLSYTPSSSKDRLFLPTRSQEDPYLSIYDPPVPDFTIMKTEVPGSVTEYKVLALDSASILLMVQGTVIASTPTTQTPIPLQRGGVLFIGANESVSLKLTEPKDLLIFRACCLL

[3] = blockers of HIV-1 envelope-mediated cell-cell fusion – cherry-pick, dose response (AID 652057); type: functional, cell-based
[4] = blockers of HIV-1 ZM109 envelope-driven cell-cell fusion – HeLa effector, CEM target cells, luciferase, cherry-pick, dose response (AID 652058); type: functional, cell-based;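 note: luciferase signal from HIV-1 Env mediated cell-cell fusion of effector and target cells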
[5] = off-target signal loss in HeLa-CEM21 co-culture – HeLa F-luc CTL cells, cherry-picked, counter-screen for HIV-1 Env fusion inhibitor project, dose response (AID 652040); type: functional, cell-based;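 note: potency for signal decrease marking cytotoxic or nonspecific inhibition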
[6] = HIV-1 AD8 envelope cell-cell fusion blockers – cherry-pick, dose response (AID 652062); type: functional, cell-based;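 note: luciferase signal from cell-cell fusion driven by HIV-1 clade B AD8 Env; potency is for inhibitors of fusion seen as a drop in luminescence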
[7] = target: Peroxisome proliferator-activated receptor gamma/Nuclear receptor coactivator 2 (Homo sapiens, UniProt P37231); type: functional;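 note: agonist potency for raising coactivator recruitment to the receptor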
[8] = target: Peroxisome proliferator-activated receptor gamma/Nuclear receptor coactivator 1 (Homo sapiens, UniProt P37231); type: functional;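 note: agonist potency as compounds enhance coactivator SRC-1 recruitment to PPARgamma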
[9] = target: Peroxisome proliferator-activated receptor gamma/Nuclear receptor coactivator 3 (Homo sapiens, UniProt P37231); type: functional;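 note: agonist potency for raising coactivator recruitment to the receptor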
Mucolipin-3 = Mucolipin-3 (Homo sapiens, UniProt Q8TDD5); assay: Dose response cell-based high-throughput screening assay for agonists of the transient receptor potential channel ML3 (TRPML3). [Related pubchem assays: 1526, 1424, 1448 ]; type: functional
Ion channel NompC = Ion channel NompC (Danio rerio, UniProt Q7T1G6); assay: Fluorescence counterscreen assay for TRPML3 agonists: dose response cell-based high-throughput screening assay to identify agonists of the transient receptor potential channel N1 (TRPN1). [Related pubchem assays: 1526, 1424, 1448 ]; type: functional
Chain of Ion channel NompC (Q7T1G6 whole entry): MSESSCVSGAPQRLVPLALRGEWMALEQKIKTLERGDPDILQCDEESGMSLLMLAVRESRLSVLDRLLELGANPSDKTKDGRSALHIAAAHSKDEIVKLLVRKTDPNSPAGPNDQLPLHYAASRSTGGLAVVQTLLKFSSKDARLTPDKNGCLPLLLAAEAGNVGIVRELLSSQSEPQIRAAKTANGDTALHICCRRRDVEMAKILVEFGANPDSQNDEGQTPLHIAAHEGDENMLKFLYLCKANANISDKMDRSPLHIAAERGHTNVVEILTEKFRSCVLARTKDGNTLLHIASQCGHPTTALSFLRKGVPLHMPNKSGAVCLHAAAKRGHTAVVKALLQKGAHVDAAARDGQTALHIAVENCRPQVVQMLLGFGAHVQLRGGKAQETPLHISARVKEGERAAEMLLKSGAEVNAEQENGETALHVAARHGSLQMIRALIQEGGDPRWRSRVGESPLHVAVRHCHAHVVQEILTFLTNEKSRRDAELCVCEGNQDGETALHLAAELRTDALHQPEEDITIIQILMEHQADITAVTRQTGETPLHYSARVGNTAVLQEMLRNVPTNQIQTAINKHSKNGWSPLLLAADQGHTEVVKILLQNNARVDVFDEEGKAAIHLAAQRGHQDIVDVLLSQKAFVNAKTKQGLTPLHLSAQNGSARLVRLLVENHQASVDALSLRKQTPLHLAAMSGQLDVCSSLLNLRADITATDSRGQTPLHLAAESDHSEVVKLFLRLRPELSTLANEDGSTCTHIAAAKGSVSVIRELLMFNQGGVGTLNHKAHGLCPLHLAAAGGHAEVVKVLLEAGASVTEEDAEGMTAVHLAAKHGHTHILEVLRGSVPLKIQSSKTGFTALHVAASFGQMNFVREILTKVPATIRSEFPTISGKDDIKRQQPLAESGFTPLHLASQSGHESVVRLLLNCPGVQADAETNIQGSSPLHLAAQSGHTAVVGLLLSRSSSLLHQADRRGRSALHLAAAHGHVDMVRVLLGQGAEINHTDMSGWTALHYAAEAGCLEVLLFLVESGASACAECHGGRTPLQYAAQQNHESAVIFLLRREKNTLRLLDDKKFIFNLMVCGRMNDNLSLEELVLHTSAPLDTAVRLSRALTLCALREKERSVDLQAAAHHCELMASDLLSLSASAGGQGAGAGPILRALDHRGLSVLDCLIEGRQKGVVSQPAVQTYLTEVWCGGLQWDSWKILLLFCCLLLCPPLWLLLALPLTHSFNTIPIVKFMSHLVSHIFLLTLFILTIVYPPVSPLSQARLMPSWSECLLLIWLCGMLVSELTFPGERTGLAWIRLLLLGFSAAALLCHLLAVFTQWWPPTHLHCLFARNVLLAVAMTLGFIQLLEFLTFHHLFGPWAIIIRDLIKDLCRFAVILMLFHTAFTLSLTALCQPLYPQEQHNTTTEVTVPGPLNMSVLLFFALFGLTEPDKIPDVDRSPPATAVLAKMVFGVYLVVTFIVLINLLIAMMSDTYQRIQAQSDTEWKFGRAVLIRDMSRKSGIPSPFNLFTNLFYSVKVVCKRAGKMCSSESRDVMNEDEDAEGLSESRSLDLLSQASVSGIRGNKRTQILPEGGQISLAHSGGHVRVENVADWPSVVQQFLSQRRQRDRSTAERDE

Chain of Mucolipin-3 (Q8TDD5 whole entry): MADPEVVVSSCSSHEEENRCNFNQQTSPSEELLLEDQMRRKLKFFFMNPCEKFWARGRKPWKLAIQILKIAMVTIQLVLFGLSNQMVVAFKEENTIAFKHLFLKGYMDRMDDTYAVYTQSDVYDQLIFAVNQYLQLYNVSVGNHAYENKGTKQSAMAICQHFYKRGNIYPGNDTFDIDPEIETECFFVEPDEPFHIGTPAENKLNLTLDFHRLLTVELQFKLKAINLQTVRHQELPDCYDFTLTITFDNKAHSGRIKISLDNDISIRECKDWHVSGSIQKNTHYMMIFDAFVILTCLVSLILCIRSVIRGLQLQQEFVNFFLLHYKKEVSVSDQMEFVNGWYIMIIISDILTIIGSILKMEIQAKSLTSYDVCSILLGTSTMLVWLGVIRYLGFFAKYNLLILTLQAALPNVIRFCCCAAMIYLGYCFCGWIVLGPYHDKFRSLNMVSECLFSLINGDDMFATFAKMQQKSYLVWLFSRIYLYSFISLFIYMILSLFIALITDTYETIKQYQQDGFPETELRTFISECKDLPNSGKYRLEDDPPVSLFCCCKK
Chain of Peroxisome proliferator-activated receptor gamma/Nuclear receptor coactivator 1 (P37231 whole entry): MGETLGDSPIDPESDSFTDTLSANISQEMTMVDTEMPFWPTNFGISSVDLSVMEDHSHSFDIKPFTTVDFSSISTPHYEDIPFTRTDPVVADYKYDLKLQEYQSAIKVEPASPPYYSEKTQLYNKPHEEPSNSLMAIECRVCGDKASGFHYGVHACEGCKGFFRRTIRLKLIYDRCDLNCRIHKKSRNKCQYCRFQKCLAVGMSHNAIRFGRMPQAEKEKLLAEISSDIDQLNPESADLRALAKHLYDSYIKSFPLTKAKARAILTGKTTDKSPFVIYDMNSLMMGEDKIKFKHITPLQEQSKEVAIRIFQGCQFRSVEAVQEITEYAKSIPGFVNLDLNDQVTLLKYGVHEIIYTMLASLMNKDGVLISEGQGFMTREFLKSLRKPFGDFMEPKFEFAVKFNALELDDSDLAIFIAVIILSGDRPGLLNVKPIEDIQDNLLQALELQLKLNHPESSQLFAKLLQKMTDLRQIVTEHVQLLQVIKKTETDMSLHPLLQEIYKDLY
Chain of Peroxisome proliferator-activated receptor gamma/Nuclear receptor coactivator 1 (Q15788 whole entry, further chain): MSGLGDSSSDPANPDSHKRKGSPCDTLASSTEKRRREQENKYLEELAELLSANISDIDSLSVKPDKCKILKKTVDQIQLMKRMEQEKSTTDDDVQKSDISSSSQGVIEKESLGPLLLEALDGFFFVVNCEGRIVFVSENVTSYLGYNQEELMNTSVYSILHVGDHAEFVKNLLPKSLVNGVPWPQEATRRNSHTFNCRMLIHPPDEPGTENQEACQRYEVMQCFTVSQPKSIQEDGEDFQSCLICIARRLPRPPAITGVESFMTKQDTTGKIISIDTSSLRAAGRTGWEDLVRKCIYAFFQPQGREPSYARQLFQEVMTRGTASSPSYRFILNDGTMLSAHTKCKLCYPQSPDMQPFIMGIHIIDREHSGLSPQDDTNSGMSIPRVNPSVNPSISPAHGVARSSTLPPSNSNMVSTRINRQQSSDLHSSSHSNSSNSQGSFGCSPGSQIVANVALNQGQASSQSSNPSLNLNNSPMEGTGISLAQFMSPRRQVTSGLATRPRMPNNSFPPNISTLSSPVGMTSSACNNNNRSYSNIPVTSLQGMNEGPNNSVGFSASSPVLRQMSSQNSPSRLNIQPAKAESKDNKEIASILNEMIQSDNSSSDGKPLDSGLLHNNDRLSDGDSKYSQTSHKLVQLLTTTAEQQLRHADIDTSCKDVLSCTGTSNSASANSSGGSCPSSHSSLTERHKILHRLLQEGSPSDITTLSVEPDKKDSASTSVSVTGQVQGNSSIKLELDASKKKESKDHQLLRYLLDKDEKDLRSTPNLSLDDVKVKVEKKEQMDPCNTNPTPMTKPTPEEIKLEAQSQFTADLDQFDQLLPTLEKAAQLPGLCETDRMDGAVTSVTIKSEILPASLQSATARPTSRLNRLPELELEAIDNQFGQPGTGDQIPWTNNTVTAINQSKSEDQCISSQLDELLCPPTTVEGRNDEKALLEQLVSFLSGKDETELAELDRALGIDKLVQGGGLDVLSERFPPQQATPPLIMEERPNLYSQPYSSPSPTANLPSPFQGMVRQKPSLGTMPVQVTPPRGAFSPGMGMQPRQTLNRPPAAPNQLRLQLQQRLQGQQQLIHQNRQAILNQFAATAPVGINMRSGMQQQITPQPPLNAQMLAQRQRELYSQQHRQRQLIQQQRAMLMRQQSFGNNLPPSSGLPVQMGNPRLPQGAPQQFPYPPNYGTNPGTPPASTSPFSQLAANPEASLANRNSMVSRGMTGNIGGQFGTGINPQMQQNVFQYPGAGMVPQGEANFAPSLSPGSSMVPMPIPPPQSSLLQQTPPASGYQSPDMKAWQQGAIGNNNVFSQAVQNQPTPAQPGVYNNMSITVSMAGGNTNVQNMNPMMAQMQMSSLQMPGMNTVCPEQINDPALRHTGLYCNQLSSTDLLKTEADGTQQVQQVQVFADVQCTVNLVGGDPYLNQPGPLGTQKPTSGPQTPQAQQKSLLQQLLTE

IC50 [2]: > 50 µM (not active)
Structure (SMILES): CCOc1ccc2c(c1)C(C)=CC(C)(C)N2C(=O)Nc1ccccc1

EC50 [7]: > 79.4 µM (not active)
EC50 [8]: > 79.4 µM (not active)
EC50 [9]: > 79.4 µM (not active)
Structure (SMILES): COc1cnn(-c2ccccc2)c(=O)c1N(C)C

EC50 (Mucolipin-3): 2.84 µM (active)
EC50 (Ion channel NompC): > 29.9 µM (not active)
Structure (SMILES): COc1cc(C)ccc1S(=O)(=O)N1CCCCCC1

Further lines, the compound ahead of its results:

Structure (SMILES): CCN(CC(=O)Nc1cc(Cl)ccc1C)C(=O)CSCc1ccc(C)cc1
CC50 [1]: 24.5 µM (active)
IC50 (cells): 22.8 µM (active)

Structure (SMILES): O=C(NCc1ccco1)c1ccc(Cn2c(=O)c3ccccc3n(Cc3ccc(Cl)cc3)c2=O)cc1
CC50 [1]: > 50 µM (active)
AC50 [3]: 0.669 µM (active)
AC50 [4]: 1.48 µM (active)
AC50 [5]: 0.421 µM (active)
AC50 [6]: 5.95 µM (active)
IC50 (cells): 0.58 µM (active)
